Data reported in US9526721B2, “Tetrahydroprotoberbine compounds and uses thereof in the treatment of neurological, psychiatric and neurodegenerative diseases” (priority 2012, dated 2016).
Read-outs that look alike come from different tables or passages of the source. Marks after values point to notes of the source that are not given here.

Tests used:
D2L [1] = target: T1, D2L (Homo sapiens, UniProt P14416); experiment: Receptor binding, dopamine D2L; settings: present data; comparison ligand 0.16 nM Spiperone; read-out: D2L (Ki)
T1 construct: host or cells: CHO cells
Protocol: (§1) All receptors tested were heterologously expressed CHO cells and IC50 values were determined by a non-linear, least squares regression analysis using MathIQ (ID Business Solution Ltd, UK). Ki was calculated using the equation of Cheng and Prusoff (1973, Biochem. Pharmacol 22:23099-3108) derived from the observed IC50 of the tested compound, the concentration of radioligand employed in the assay, and the historical values for the Kd of the ligand (obtained experimentally at MDS Pharma Services).
as §1, with “receptors” for “receptors tested”, “UK). K1” for “UK). Ki”, “calculated (Y.” for “calculated using the equation of”, “Cheng &” for “Cheng and”, “Prusoff 1973)” for “Prusoff (1973, Biochem. Pharmacol 22:23099-3108) derived”

D1/D2 [2] = experiment: D1/D2 affinity ratio; format: binding; settings: present data
Protocol: as §1, with “receptors” for “receptors tested”, “UK). K1” for “UK). Ki”, “calculated (Y.” for “calculated using the equation of”, “Cheng &” for “Cheng and”, “Prusoff 1973)” for “Prusoff (1973, Biochem. Pharmacol 22:23099-3108) derived”

Catalepsy (bar test) = format: in vivo, rat; settings: rat, in vivo; present data; SC, 45 min time point
Protocol: (§2) Testing occurred in a plexiglas box (28 cm×45 cm×20 cm) containing a horizontal steel bar located 8 cm above floor level. […] After injection animals were returned to the test box and catalepsy testing occurred at 1, 15, 30, and 45 minutes after injection. Testing at each time point lasted 2 min after the forepaws of each rat was placed on the bar. Behavior was recorded with a video camera (Cohu, Poway, Calif.) and scored off-line. The cumulative time spent immobilized with both forelimbs on the horizontal bar was scored for each 2 min test epoch. Videos selected at random were scored independently by a second observer and a high inter-rater reliability was observed (R^2=0.93, F=393.4, p<0.05).
(§3) Catalepsy testing was conducted as described in Example 12.

rats [3] = experiment: Catalepsy (bar test); format: in vivo, rat
Protocol: as §2, §3

rats [4] = experiment: Latent inhibition; format: in vivo, rat
Protocol: Sensitization: Animals were removed from the colony and taken to a holding room where they received either IP d-AMPH or saline every Monday, Wednesday, and Friday. Doses started at 1 mg/kg and increased 1 mg/kg each week over 5 weeks to 5 mg/kg. 25 days after the induction phase, behavioral sensitization was assessed over 3 days in locomotor chambers (plexiglass box, 40 cm×40 cm×40 cm) where speed and distance traveled were recorded using Noldus Ethovision XT (Noldus, Leesburg, Va.). The first day consisted of a 2 hr acclimation session, and prior to counter balanced injections of either 0.5 mg/kg d-AMPH or saline on days 2 and 3 animals were acclimated for 1 hr. Experiments were run in two separate cohorts of 30 animals to minimize the time between testing sensitization and LI.
Latent Inhibition: LI tests were performed in rats treated with 1.0 mg/kg acute d-AMPH, sensitized rats, and drug-naive rats. LI testing began 5 days post-challenge of the escalating dose regime. Animals in both conditions (chronic saline or sensitized) were randomly assigned to either non-pre-exposed (NPE) or pre-exposed (PE) groups. Testing took place over 3 consecutive days. […] Animals in the PE group received 50 presentations of the CS (10 sec duration) per day at a variable interval for the first two days. Animals in the NPE group were placed in the chamber for an equal time as the PE animals. Conditioning (COND) consisted of 100 CS-US pairings. Latency to cross into the other compartment and the number of total beam breaks were recorded. Drug-naïve animals receiving acute 1.0 mg/kg AMPH were injected IP 45 min before the COND trial.
The effects of the two individual enantiomers of govadine on latent inhibition (LI) were also tested as described in Example 12.

D1 [5] = target: T2, D1 (Homo sapiens, UniProt P21728); experiment: Receptor binding, dopamine D1; set-up: host or cells: CHO cells; settings: present data; comparison ligand 0.14 nM SCH-23390; read-out: D1 (Ki)
Protocol: as §1
as §1, with “receptors” for “receptors tested”, “UK). K1” for “UK). Ki”, “calculated (Y.” for “calculated using the equation of”, “Cheng &” for “Cheng and”, “Prusoff 1973)” for “Prusoff (1973, Biochem. Pharmacol 22:23099-3108) derived”

rats [6] = experiment: Amphetamine-induced locomotion (AIL); settings: Rattus norvegicus, ip, 1 h, read-out: AIL (ED50)
Protocol: Animals were habituated to the locomotor arena for 1 hr on 4 consecutive days prior to testing. Locomotor activity was assessed on day 1 of habituation and treatment groups were assigned in a counter balanced fashion depending on locomotor activity on this day.
After d-AMPH/SAL injection, distance travelled was assessed for 1 hr. Distance travelled was recorded with Noldus Ethovision XT (Noldus, Leesburg, Va.) and analyzed off-line.
Amphetamine induced locomotion (AIL): Animals were habituated to locomotor arenas for 1 hr on 4 consecutive days prior to testing. Locomotor activity was assessed on day 1 of habituation and treatment groups were assigned in a counter-balanced manner determined by distance traveled on day 1. […] Distance traveled was recorded with Noldus Ethovision XT (Noldus, Leesburg, Va.) and analyzed off-line.

rats [7] = experiment: Conditioned avoidance responding (CAR)
Protocol: Conditioned avoidance responding (CAR) was performed in a two-way avoidance procedure with drug naive rats in four shuttle boxes (Med Associates, Vt., USA) each consisting of two compartments separated by an open door. Each compartment contained a wall-mounted speaker, house light and 5 photocells to detect the location of the animal. All experimental protocols and data acquisition were controlled by custom programs written in MED-PC.
Before training, each animal received two acclimation sessions lasting 30 min with only the house light illuminated. […] Pairings of the conditioned stimulus (CS) (white noise, ˜60 dB) and the unconditioned stimulus (US) (footshock, 0.75 mA) were presented at random intervals with a mean of 60 sec. The CS was presented for 10 sec. During this time, if the animal moved to the opposite side of the box, the white noise was silenced, no foot shock delivered, and an avoidance response was scored. Upon termination of the 10 sec tone, if the animal had not moved to the opposite side of the box, a foot-shock was administered for 2 sec. […] Failure to avoid or escape constituted a response failure and was scored accordingly. After reaching a criterion of 90% avoidances for a block of 20 trials, usually achieved with ˜100 CS-US pairings, each animal advanced to the drug-testing phase. Animals not meeting the criterion by 120 pairings were excluded from the study.
Pairings were presented just as during training and were scored in the same fashion. The test trial consisted of 100 CS-US pairings.

rats [8] = experiment: Microdialysis of prefrontal cortex and nucleus accumbens;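 further: dialysate collected every 10 min from freely moving rats, analysed by HPLC with electrochemical detection, after four stable baseline samples (under 10% variation) preceding drug dosing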
Protocol: Rats received subcutaneous injections of an analgesic (ketoprofen 0.05 mL or buprenorphine, 0.1 mL) and sterile saline (0.9% NaCl, ˜3 mL). Once shaved and cleaned, the heads were secured in the stereotaxic frame in flat skull position for bilateral implantation of stainless steel microdialysis guide cannulae (19 gauge×15 mm) in the nucleus accumbens (NAc) (from bregma +1.7 mm anterior and ±1.1 mm medial; from dura −1.0 mm ventral) or medial prefrontal cortex (mPFC) (+3.0 mm anterior, ±0.6 mm medial; −1.0 mm ventral). […] Rats were allowed to rest with heat support until they regained consciousness, and then given a one-week recovery period.
Microdialysis probes were assembled 1-2 days prior to microdialysis experiments. Probes were concentric in design, constructed from Filtral 12 AN69HF semi-permeable hollow fibres (2 mm length, 340 μm OD×4 mm, 65 kDalton molecular weight cut-off; Hospal, Neurnberg, Germany) and silica inlet-outlet lines (75/150 um ID/OD).
The day prior to microdialysis experiments, probes were connected to an Instech dual-channel liquid swivel (Plymouth Meeting, Pa.) and flushed with artificial cerebrospinal fluid (aCSF). […] Following DA recovery tests, probes were implanted via the guide cannulae (dialysis membrane spanned −4.8 to −6.8 mm ventrally for NAc; −1.6 to −3.6 mm for mPFC). Rats remained in the testing chamber overnight (14-16 hr) with aCSF perfusing continuously through the probes at 1 μL/min In the morning, microdialysis samples were collected at 10 min intervals and assayed for DA, DOPAC, homovanillic acid (HVA) and 5-HIAA content. Once baseline levels were determined to be stable for four consecutive samples (less than 10% fluctuation), the drug treatment phase of each experiment was initiated.
Microdialysis samples were analyzed immediately after collection using high pressure liquid chromatography (HPLC) with electrochemical detection. […] The mobile phase [70 mM sodium acetate buffer, 40 mg/L EDTA and 50 mg/L of sodium dodecyl sulfate (adjustable), pH 4.0, 10% methanol] flowed through the system at 0.17 mL/min EZChrome Elite software (Scientific Software, Pleasanton, Calif.) was used to acquire and analyze chromatographic data.
After the experiments, rats were deeply anesthetized, brains were removed and stored in 20% w/v sucrose and 4% v/v paraformaldehyde. Brains were sliced into 50 um coronal sections, stained with cresyl violet and examined for probe placement.
Microdialysis probes (2 mm active membrane) were implanted in the NAc and mPFC ˜16 hrs prior to start of the experiment and continuously perfused aCSF.

rats [9] = experiment: Temporal order recognition (radial arm maze); settings: 1.0 mg/kg govadine isomers, 5.0 mg/kg clozapine
Protocol: The task exploits a rat's natural preference for novel locations. Each animal received 3 separate trials where access to two arms of an eight arm radial arm maze was granted. During the first trial, two arms were selected at random for exploration, and animals were allowed to explore these arms for 2 min After this time, they were taken off the maze and returned to their home cage. 1 hour later they were placed back on the maze and two new arms were randomly selected for 2 min of exploration.
Time spent in each arm (recent and old) was recorded as well as total distance traveled and the total number of arm entries in Noldus EthoVision 3.1 (Leesburg, Va.).

D2L [10] = target: T1, D2L; settings: Xu, S. X. et al., 1989; comparison ligand 0.16 nM Spiperone; cited from earlier work
D1/D2 [11] = settings: cited from earlier work
rats [12] = settings: Natesan et al., 2008; cited from earlier work
rats [13] = settings: Natesan et al., 2008; listed as 1-SPD; cited from earlier work
rats [14] = settings: Natesan et al., 2008; cited from earlier work; remark: listed apart in the source
D1 [15] = target: T2, D1; settings: read-out: D1 (Ki); Xu, S. X. et al., 1989; comparison ligand 0.14 nM SCH-23390; cited from earlier work
[16] = microdialysis, nucleus accumbens
[17] = microdialysis, prefrontal cortex

T1 sequence (P14416 whole entry): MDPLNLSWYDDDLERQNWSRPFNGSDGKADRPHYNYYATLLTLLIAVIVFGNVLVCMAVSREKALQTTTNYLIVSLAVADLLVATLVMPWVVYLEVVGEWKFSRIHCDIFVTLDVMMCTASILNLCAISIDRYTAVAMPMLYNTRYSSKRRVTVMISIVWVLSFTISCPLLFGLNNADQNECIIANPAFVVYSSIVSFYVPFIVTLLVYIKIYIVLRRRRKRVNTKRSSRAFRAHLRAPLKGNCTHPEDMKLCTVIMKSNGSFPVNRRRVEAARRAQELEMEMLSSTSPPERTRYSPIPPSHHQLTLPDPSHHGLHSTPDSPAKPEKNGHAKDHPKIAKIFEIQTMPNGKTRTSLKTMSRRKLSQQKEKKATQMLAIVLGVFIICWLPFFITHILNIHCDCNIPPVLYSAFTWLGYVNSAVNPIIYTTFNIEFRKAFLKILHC
T2 sequence (P21728 whole entry): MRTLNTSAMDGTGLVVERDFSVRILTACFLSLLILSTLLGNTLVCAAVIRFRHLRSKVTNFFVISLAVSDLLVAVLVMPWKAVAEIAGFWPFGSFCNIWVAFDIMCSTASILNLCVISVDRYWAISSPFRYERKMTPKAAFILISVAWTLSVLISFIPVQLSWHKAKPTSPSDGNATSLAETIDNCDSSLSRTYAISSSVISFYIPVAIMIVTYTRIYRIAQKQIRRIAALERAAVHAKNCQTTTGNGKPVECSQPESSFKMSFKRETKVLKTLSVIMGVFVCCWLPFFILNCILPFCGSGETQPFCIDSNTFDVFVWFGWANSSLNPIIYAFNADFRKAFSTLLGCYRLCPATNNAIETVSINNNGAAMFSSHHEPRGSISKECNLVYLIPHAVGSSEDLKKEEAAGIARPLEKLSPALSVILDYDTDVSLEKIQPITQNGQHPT

Q: Which Ki (D2L [1]) does the source give for COc1cc2c(cc1O)CN1CCc3cc(OC)c(O)cc3C1C2 (racemic) [dl-govadine] here?
A: 283 nM

Q: And the D1/D2 (D1/D2 [2])?
A: 0.023#

Q: And the ED50 at 45 min (Catalepsy (bar test))?
A: 4.7 mg/kg

Q: And the catalepsy observed (rats [3]; 1.0 mg/kg SC)?
A: mild motor suppression

Q: What about the catalepsy observed (rats [3]; 6.0 mg/kg SC) of the same compound?
A: Strong and extended catalepsy

Q: What about the “catalepsy (immobilized contact time)” value (rats [3]; SC, across doses tested) of the same compound?
A: dose-dependent increase

Q: And the “latent inhibition in non-sensitized animals” value (rats [4]; 1.0 mg/kg SC before each pre-exposure session)?
A: no subsequent effect on LI

Q: What about the “latent inhibition in d-AMPH sensitized animals” value (rats [4]; 1.0 mg/kg SC before each pre-exposure, 5-week escalating d-AMPH) of the same compound?
A: restored LI to levels observed in controls

Q: What about the “latent inhibition in acute d-AMPH-treated animals” value (rats [4]; treatment before each pre-exposure, 1.0 mg/kg d-AMPH before conditioning) of the same compound?
A: restored LI

Q: And the Ki (D1 [5])?
A: 6.7 nM

Q: What about the ED50 at […] (rats [6]) of the same compound?
A: 1.7 mg/kg

Q: What about the ED50 (rats [7]; Rattus norvegicus, sc, 20 min, read-out: CAR (ED50), present data, SC, 20 min post-injection) of the same compound?
A: 0.723 mg/kg

Q: And the “escapes in CAR” value (rats [7]; SC, 100 CS-US pairings)?
A: increase in escapes

Q: And the “suppression of conditioned avoidance responding (avoidances)” value (rats [7]; SC, 100 CS-US pairings)?
A: dose-dependently suppressed avoidances

Q: And the “CAR (ED50)” value (rats [7]; present data, SC, 20 min post-injection)?
A: 0.720# mg/kg

Q: What about the “effect of repeated treatment in CAR” value (rats [7]; repeated treatment, FIG. 14) of the same compound?
A: Neither of these effects was observed

Q: And the “DA efflux in NAc and mPFC compared to control” value (rats [8]; 1 mg/kg, Example 15)?
A: enhanced DA efflux

Q: And the “5-HIAA in NAc” value (rats [8]; [16])?
A: No increase

Q: And the “DOPAC in NAc” value (rats [8]; [16])?
A: Increases

Q: What about the “HVA in NAc” value (rats [8]; [16]) of the same compound?
A: Increases

Q: And the “dopamine level in NAc” value (rats [8]; [16])?
A: increased

Q: What about the “5-HIAA in PFC” value (rats [8]; [17]) of the same compound?
A: No increase

Q: And the “DOPAC in PFC” value (rats [8]; [17])?
A: Increases

Q: And the “HVA in PFC” value (rats [8]; [17])?
A: Increases

Q: And the “dopamine level in PFC” value (rats [8]; [17])?
A: increased

Q: For CN1CCN(C2=Nc3cc(Cl)ccc3Nc3ccccc32)CC1 [Clozapine, reference compound], which “Arm Entries” value (rats [9]; 45 min. delay) is on record?
A: 7.0 ± 1.9

Q: And the “Distance Travelled” value (rats [9]; 45 min. delay)?
A: 1286 ± 177

Q: What about the “Arm Entries” value (rats [9]; 4 hr. delay) of the same compound?
A: 6.0 ± 1.6

Q: And the “Distance Travelled” value (rats [9]; 4 hr. delay)?
A: 1098 ± 74

Q: With COc1cc2c(cc1O)[C@@H]1Cc3ccc(O)c(OC)c3CN1CC2 [l-Stepholidine, l-stepholidine] as the compound, how does the Ki (D2L [10]) read?
A: 85 nM

Q: And the D1/D2 (D1/D2 [11]; Natesan et al., 2008)?
A: 0.850*

Q: What about the D1/D2 (D1/D2 [11]; Xu, S. X. et al., 1989) of the same compound?
A: 0.150**

Q: What about the “AIL (ED50)” value (rats [12]) of the same compound?
A: 2.36* mg/kg

Q: And the “CAR (ED50)” value (rats [13])?
A: 0.27 mg/kg

Q: What about the “Catalepsy (ED50)” value (rats [14]) of the same compound?
A: 3.6 mg/kg

Q: What about the Ki (D1 [15]) of the same compound?
A: 13 nM
